Entries after “also recorded” stand apart in the source; their conditions may differ. Read-outs that look alike come from different tables or passages of the source.
What was measured:
[1] = system: occluding thrombosis of the femoral artery; assay: Prevention of arterial thrombosis in dogs; type: in vivo, dog; settings: for n dogs with occluding thrombosis: controls 10 of 16, * α = 0.05; for incidence of occluding thrombosis of the femoral artery (in words): suloctidil 5 times 5 mg/kg i.m., acetylsalicylic acid 5 times 100 mg/kg p.o.
Protocol: In animals, 1-(4-isopropylthiophenyl)-2-n-octylaminopropanol reduces thromboformation in arteries and veins.
Thrombosis was induced in the femoral
artery of anesthetized dogs by a 30 min perfusions, in a
catheterized area of the vessel, of a solution of pronase.
Drugs administrations were made at 24 h intervals, for 5 days
the last dosage being given 30 min before anesthesia.

cholesterol biosynthesis = assay: Inhibition of cholesterol biosynthesis in vitro (rat liver); type: cell-based; settings: for inhibition at 100 µM / inhibition at 10 µM: Rattus norvegicus, rat liver, mean; for inhibition at 100 µM: 10^-4 M; for inhibition at 10 µM: 10^-5 M; for inhibition of cholesterol biosynthesis (in words): in vitro
Description: |Inhibition of cholesterol biosynthesis in vitro (rat liver). In- |hibitory effect of suloctidil and clofibrate on the incorpora- |tion of 1-^14 [NT] and 2-^14 C-mevalonate (MVA). |are mean values and range, expressed in % of inhibition. Unless |otherwise stated, n = 3.

[2] = system: vascular contractile cell; assay: Vascular antispasmodic activity: inhibition of induced vasoconstrictions in vitro and in vivo
BaCl2 = assay: Antispasmodic activity, BaCl2
[3] = Prothrombine levels in patients under oral anti-coagulants therapy; type: in vivo, human; settings: 900 mg daily with long-term oral anti-coagulants
Protocol: (§1) After a single oral intake of 200 mg the effect lasts for at least 6 h. Repeated administration of 1-(4-isopropylthiophenyl)-2-n-octylaminopropanol seems to optimalize its anti-platelet activity. […] Moreover, investigations on its mode of action indicate that the mechanism involved are quantitatively and qualitatively different from these of the other known anti-platelet agents.

[4] = system: peripheral and cerebral circulations; assay: Blood flow in peripheral and cerebral circulations after i.v. or oral administration; type: in vivo; settings: mice or dogs
[5] = system: ADP, L-epinephrine, collagen and Thrombofax induced aggregation; assay: Ex-vivo platelet aggregation after oral administration to healthy volunteers; set-up: species or system human
Protocol: as §1

lipoproteinlipases = assay: Inhibitory effect on lipoproteinlipases; type: biochemical
[6] = system: thrombosis of the hepatic veins; assay: Prevention of deep veins thrombosis in rats; type: in vivo, rat; settings: for n rats with score 2: control 1; for n rats with score 3: control 2; for n rats with score 1: control 12, * α = 0.05; for n rats with score 0: control 13, ** α = 0.01; for thrombosis of the hepatic veins (in words): rats fed hyperlipidemic diet 3 months, endotoxin
Protocol: (see table VI given below).
Thrombosis in the hepatic veins were in-
duced in rats fed an hyperlipidemic diet for 3 months by i.v.
injection of endotoxin (lipopolysaccharide B from Salmonella
Sulcoctidil was administered into the diet. The importance of the
thrombosis assessed by scoring the subsequent red
hepatic infarcts according to their number and surface.

[7] = system: peripheral vasodilatatory activity; assay: Vasodilatory effect after intraarterial injection in dog; type: in vivo
Protocol: (1) intraarterial injection in dog (5 animals) 10, 20 and 30 μg/kg.
(2) maximum vasodilatory effect in mm of Hg.
(3) and (4) expressed in seconds.

[8] = system: platelets emboli triggered by ADP; assay: Platelets emboli triggered by ADP in mice or rats; type: in vivo
Description: Since platelet aggregation is considered to be of paramount importance in thrombus formation, this anti-platelet activity of 1-(4-isopropylthiophenyl)-2-n-octylaminopropanol (suloctidil) is likely to explain its anti-thrombotic properties.

[9] = system: vasoconstrictions induced by norepinephrine and angiotensine in the femoral circulation; assay: Inhibition of vasoconstrictions in the femoral circulation of dogs; set-up: species or system dog; settings: in vivo, FIG. 1: i.a. 10 μg/kg/min, listed as suloctidil
Description: The vasoconstrictions are induced by i.a. norepinephrine (n=10) or angiotensine (n=8) during solvent (C) or drug (T) infusion.
Vertical bars are standard errors of the means and * or *** indicate statistically significant differences from the corresponding control values at the thresholds α=0.05 and 0.001 respectively.

[10] = system: catecholamines and methylxanthine induced lipolysis; assay: Antilipolytic activity in vitro in rat epididymal fat; type: cell-based
guinea pig atria's = assay: Protective activity against anoxia (guinea pig atria); set-up: key: scale: + = 10 to 20% increase in survival time; settings: increase in survival time
Description: (5) guinea pig atria's;
+ = increase in survival time of 10 to 20%

DL50 mouse p.o. = settings: in vivo, po, limits of reliability (p : 0.95) in brackets
Description: (1) the limits of reliability (p : 0.95) are given in brackets.

Bleeding time in man = type: in vivo, human; settings: repeated administration
Protocol: as §1

platelet functions = assay: Platelet antiaggregating properties in vitro and in vivo
[11] = Blood viscosity and plasma fibrinogen in geriatric patients (pilot studies); type: in vivo, human; settings: long-term treatment
[12] = system: experimental type II hyperlipidemia; assay: Experimental type II hyperlipidemia in monkeys; type: in vivo, monkey
Ac.chol. = assay: Antispasmodic activity, Ac.chol.
Hist. = assay: Antispasmodic activity, Hist.
[13] = system: spontaneously hypertensive rat; assay: Antihypertensive activity (spontaneously hypertensive rat); type: in vivo; settings: 15 mg/kg per os
Protocol: (3) spontaneously hypertensive rat; 15 mg/kg per os;
± reduction of systolic pressure up to 10 mm of Hg
+ reduction of systolic pressure of 10 to 20 mm Hg
++ reduction of systolic pressure of at least 20 mm of Hg

[14] = AA, read-out: Inhibition of incorporation of 1-^14 C-acetate (AA)
[15] = MVA, read-out: Inhibition of incorporation of 2-^14 C-mevalonate (MVA)

Compound: CC(=O)Oc1ccccc1C(=O)O [Acetylsalicylic acid, reference compound]
- n dogs with occluding thrombosis ([1]; 5 × 100 mg/kg p.o., n = 10): 1
- incidence of occluding thrombosis of the femoral artery (in words) [1]: also effective in these conditions

Compound: CCOC(=O)C(C)(C)Oc1ccc(Cl)cc1 [Clofibrate, reference compound]
- inhibition at 100 µM (cholesterol biosynthesis; [14]): 47.4%
- inhibition at 10 µM (cholesterol biosynthesis; [14]): 4.2%

Compound: CCCCCCCCNC(C)C(O)c1ccc(SC(C)C)cc1 (stereo not shown) [No 2, 1-(4-isopropylthiophenyl)-2-n-octylaminopropanol]
- vascular antispasmodic activity and vasodilating action [2]: potent vascular antispasmodic activity and vasodilating action
- inhibition of vasoconstrictions ([2]; in vitro and in vivo, calcium, norepinephrine, 5-hydroxytryptamine and angiotensine): inhibits, in vitro and in vivo, vasocontrictions induced by various agents like calcium, norepinephrine, 5-hydroxytryptamine and angiotensine
- Antispasmodic activity CE 100, BaCl2 (BaCl2): 100 μ g γ 60 ml
- prothrombine levels [3]: does not markedly decrease prothrombine levels
- increase in blood flow in peripheral and cerebral circulations [4]: increase in blood flow in both peripheral and cerebral circulations
- inhibition of induced platelet aggregation ([5]; ex-vivo, single oral administration, 200 mg or more, healthy volunteers): strongly inhibits ADP, L-epinephrine, collagen and Thrombofax induced aggregation
- duration of anti-aggregating effect ([5]; single oral intake of 200 mg): at least 6 h
- direct inhibitory effect on lipoproteinlipases (lipoproteinlipases): direct inhibitory effect on the activity of different lipoproteinlipases
- n rats with score 2 ([6]; 10 mg/kg/day in diet): 0
- n rats with score 3 ([6]; 10 mg/kg/day in diet): 0
- n rats with score 1 ([6]; 10 mg/kg/day in diet): 4
- n rats with score 0 ([6]; 10 mg/kg/day in diet): 25
- n rats with score 2 ([6]; 25 mg/kg/day in diet): 0
- n rats with score 3 ([6]; 25 mg/kg/day in diet): 0
- n rats with score 1 ([6]; 25 mg/kg/day in diet): 5
- n rats with score 0 ([6]; 25 mg/kg/day in diet): 23
- thrombosis of the hepatic veins (in words) [6]: protection is still conferred by a 10 mg/kg oral dose
- thrombosis of the hepatic veins (in words) ([6]; listed as suloctidil): markedly less frequent and less developped
- peripheral vasodilatatory activity compared with papaverine [7]: greater degree of activity than papaverine
- Amplitude (maximum vasodilatory effect) ([7]; 10 μg/kg): 42 mm of Hg
- Duration of effect ([7]; 10 μg/kg): 226 s
- Half-life (of vasodilatory effect) ([7]; 10 μg/kg): 1.57 min
- Amplitude (maximum vasodilatory effect) ([7]; 20 μg/kg): 59 mm of Hg
- Duration of effect ([7]; 20 μg/kg): 299 s
- Half-life (of vasodilatory effect) ([7]; 20 μg/kg): 2.32 min
- Amplitude (maximum vasodilatory effect) ([7]; 30 μg/kg): 67 mm of Hg
- Duration of effect ([7]; 30 μg/kg): 390 s
- Half-life (of vasodilatory effect) ([7]; 30 μg/kg): 2.63 min
- activity compared with acetyl salicyclic acid ([8]; at the same dose): as active as acetyl salicyclic acid
- formation of platelets emboli triggered by ADP ([8]; oral, mice or rats): blocked or decreased the formation of platelets emboli triggered by ADP
- inhibition of vasoconstrictions in the femoral circulation [9]: potent inhibitor of vasoconstrictions; also recorded: more active than standard agents like papaverine and cinnarizine
- inhibition at 100 µM (cholesterol biosynthesis; [14]): 49.4%
- inhibition at 10 µM (cholesterol biosynthesis; [14]): 27.5%
- inhibition at 100 µM (cholesterol biosynthesis; [15]): 25.9%
- inhibition at 10 µM (cholesterol biosynthesis; [15]): 9.9%
- inhibition of cholesterol biosynthesis (in words) (cholesterol biosynthesis): strong inhibitor of cholesterol biosynthesis; also recorded: more specific than that of standard compounds like clofibrate
- inhibition of cholesterol biosynthesis (in words) (cholesterol biosynthesis; listed as suloctidil): markedly inhibits the biosynthesis of cholesterol
- antilipolytic activity [10]: potent antilipolytic activity
- Protective activity against anoxia (guinea pig atria's): 0
- LD50 (DL50 mouse p.o.): 3700 mg/kg
- bleeding time (Bleeding time in man): does not prolong bleeding time in man
- platelet antiaggregating properties (platelet functions): potent platelet antiaggregating properties
- platelet antiaggregating properties (platelet functions; listed as suloctidil): platelet anti-aggregating properties
- plasma fibrinogen levels [11]: parallel reduction of the plasma fibrinogen levels
- reduction of blood hyperviscosity ([11]; therapeutic dosage regimen): about 10%
- hypocholesterolemic and normolipoproteinemic effects [12]: hypocholesterolemic and "normolipoproteinemic" effects observed in vivo
- Antispasmodic activity CE 100, Ac.chol. (Ac.chol.): 100 μ g γ 60 ml
- Antispasmodic activity CE 100, Hist. (Hist.): 100 μ g γ 60 ml
- n dogs with occluding thrombosis ([1]; 5 × 5 mg/kg i.m., n = 16): 3
- incidence of occluding thrombosis of the femoral artery (in words) [1]: significantly lower
- Anti-hypertensive activity [13]: 0

Compound: CCCCNC(CC)C(O)c1ccc(SC)cc1 (stereo not shown) [No 17]
- Antispasmodic activity CE 100, BaCl2 (BaCl2): 1000 μ g γ 60 ml
- Protective activity against anoxia (guinea pig atria's): 0
- LD50 (DL50 mouse p.o.): 122 mg/kg
- Antispasmodic activity CE 100, Ac.chol. (Ac.chol.): 1000 μ g γ 60 ml
- Antispasmodic activity CE 100, Hist. (Hist.): 1000 μ g γ 60 ml
- Anti-hypertensive activity [13]: + (reduction of systolic pressure of 10 to 20 mm Hg)

Compound: CCCCCCCCNC(CC)C(O)c1ccc(SC)cc1 (stereo not shown) [No 18]
- Antispasmodic activity CE 100, BaCl2 (BaCl2): 500 μ g γ 60 ml
- Protective activity against anoxia (guinea pig atria's): 0
- LD50 (DL50 mouse p.o.): ~3500 mg/kg
- Antispasmodic activity CE 100, Ac.chol. (Ac.chol.): 200 μ g γ 60 ml
- Antispasmodic activity CE 100, Hist. (Hist.): 200 μ g γ 60 ml
- Anti-hypertensive activity [13]: 0

Compound: CCCCCCCCNC(CC)C(O)c1ccc(SCC)cc1 (stereo not shown) [No 20]
- Antispasmodic activity CE 100, BaCl2 (BaCl2): 100 μ g γ 60 ml
- Protective activity against anoxia (guinea pig atria's): 0
- LD50 (DL50 mouse p.o.): ~2450 mg/kg
- Antispasmodic activity CE 100, Ac.chol. (Ac.chol.): 100 μ g γ 60 ml
- Antispasmodic activity CE 100, Hist. (Hist.): 200 μ g γ 60 ml
- Anti-hypertensive activity [13]: 0
